This note sets out measurements from PMC8408635 (The Journal of Biological Chemistry, 2021).

For this test, the system named is PniDAH7PS. As to conditions: read-out: CM activity / KM, 50 mM BTP pH 7.4, 35 °C.

Consider `C=C(O[C@@H]1C=C(C(=O)O)C=C[C@H]1O)C(=O)O` [chorismate], for which the Km was determined as 21 ± 2 µM.
